Data on 6 compounds can be found in patent publication US9732094B2, “Arylquinazolines” (Merck Patent GmbH, priority 2013, dated 2017).

Read-outs that look alike come from different tables or passages of the source. Where only a bound is given, the exact number is not on record here.

Data set [1] concerns kinases of the PI3K isoenzyme family. The following applies: cited from earlier work.
In data set [2] the target is T1, Kv11.1 (hERG) (Homo sapiens (Human), UniProt Q12809).
For data set [3], the target named is T2, DNA-PK (Homo sapiens (Human), UniProt P78527). As to the kind of experiment: DNA-PK assay (biochemical), flashplate 33P-ATP kinase assay. The essentials: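 Radiometric kinase reaction in streptavidin-coated flashplates, stopped with 200 mM EDTA, then 30 min room-temperature incubation and saline washes.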
The target in data set [4] is T2, DNA-PK. The settings on record: ATP-competitive; Hardcastle et al. (2005); cited from earlier work.
Data set [5] deals with DNA-PK phosphorylation at serine 2056 (Homo sapiens (Human), UniProt P78527). As to the kind of experiment: DNA-PK phosphorylation at serine 2056 (cellular), bleomycin-treated HCT116 cells, ELISA. The class given is cell-based. The following applies: cellular DNA-PK phosphorylation at serine 2056, HCT116; read-out: IC50 pDNA-PK. In short, it runs like this: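 Chemiluminescent ELISA read-out; phospho-specific signal normalised to total DNA-PKcs. Cells (HCT116) exposed 6 h to test compound plus 10 μM bleomycin to induce double-strand breaks; DMSO control served as blank.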
A general note: An ELISA detects its analyte on a solid surface through an enzyme-linked reagent.

Data set [6] concerns the target T1, Kv11.1 (hERG). As to the kind of experiment: Kv11.1 ion channel binding assay (Predictor hERG fluorescence polarisation). The settings on record: cells marked *: measured using hERG binding assay instead of hERG patch clamp assay; read-out: Ki [Kv1.11 hERG]. How it is done:
D) Kv11.1 Ion Channel Binding Assay
Kv11.1 (hERG=human ether a go-go related […]) is a cardiac K^+ channel which should if possible not interact with the test substances. This interaction is determined quantitatively with the aid of the Predictor™ hERG Fluorescence Polarizations (FP) Assays from Life Technologies. In the case of this assay principle, cardiomyocyte cell membranes having a certain proportion of Kv11.1 channels are isolated. A dye-labelled Kv11.1 binding partner gives a high fluorescence polarisation signal by interaction with the Kv11.1. In the case of displacement of the dye, a reduction in the fluorescence polarisation signal occurs.
The assay is carried out automatically as follows: 15 nl of the test substances (highest concentration: 10 mM, 10 concentrations: dilution factors 1:3.16, DMSO) are transferred into an empty microtitre plates having 384 wells by means of an acoustic pipetter. 3 μl of the isolated membranes are subsequently added. Membranes and test substances are incubated at 22° C. for 15 min (+/−5 min). In the next step, the dye-labelled binding partner is added, followed by incubation at 22° C. After incubation for two hours, the measurement of the fluorescence polarisation is carried out on an Envision multimode Reader. Measured raw data are standardised with the aid of Genedata Assay Analyzer. The 1050 and % effect values are calculated in Genedata Condoseo.

What is called Ki is a measure of affinity in units of concentration, obtained from inhibition or displacement. As a reminder, the IC50 is the concentration that inhibits the measured activity by half.

T1 sequence (Q12809 whole entry): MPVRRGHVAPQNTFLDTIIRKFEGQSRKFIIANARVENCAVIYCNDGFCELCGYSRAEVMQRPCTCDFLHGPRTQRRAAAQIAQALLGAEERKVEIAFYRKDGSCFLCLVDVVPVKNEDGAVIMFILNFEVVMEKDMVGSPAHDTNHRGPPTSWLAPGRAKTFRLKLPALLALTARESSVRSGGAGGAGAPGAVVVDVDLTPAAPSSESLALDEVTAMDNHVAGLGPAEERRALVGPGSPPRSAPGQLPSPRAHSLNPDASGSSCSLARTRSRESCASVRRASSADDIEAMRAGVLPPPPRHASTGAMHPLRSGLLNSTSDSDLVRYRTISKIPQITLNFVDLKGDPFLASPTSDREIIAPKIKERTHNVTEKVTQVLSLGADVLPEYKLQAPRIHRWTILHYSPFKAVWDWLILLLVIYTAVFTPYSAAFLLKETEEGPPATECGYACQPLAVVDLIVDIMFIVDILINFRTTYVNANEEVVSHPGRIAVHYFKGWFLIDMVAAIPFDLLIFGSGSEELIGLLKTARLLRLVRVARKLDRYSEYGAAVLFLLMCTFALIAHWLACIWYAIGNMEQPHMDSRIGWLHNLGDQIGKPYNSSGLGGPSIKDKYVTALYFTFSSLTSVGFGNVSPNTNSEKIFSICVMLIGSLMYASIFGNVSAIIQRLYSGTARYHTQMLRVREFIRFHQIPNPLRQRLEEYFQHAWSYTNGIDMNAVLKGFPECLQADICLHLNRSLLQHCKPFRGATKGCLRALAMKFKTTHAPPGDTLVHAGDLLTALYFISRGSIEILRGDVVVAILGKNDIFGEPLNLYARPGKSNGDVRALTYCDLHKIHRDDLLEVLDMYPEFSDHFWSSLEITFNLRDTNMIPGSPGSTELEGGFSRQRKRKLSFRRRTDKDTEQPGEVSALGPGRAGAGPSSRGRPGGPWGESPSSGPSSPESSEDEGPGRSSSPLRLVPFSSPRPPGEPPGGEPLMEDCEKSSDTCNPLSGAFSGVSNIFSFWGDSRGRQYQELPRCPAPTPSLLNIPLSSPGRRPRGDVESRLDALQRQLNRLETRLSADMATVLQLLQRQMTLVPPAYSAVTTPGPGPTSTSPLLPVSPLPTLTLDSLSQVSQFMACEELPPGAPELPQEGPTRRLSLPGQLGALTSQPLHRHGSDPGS

For `CCN1CCN(CC(=O)Nc2ccc(-c3cccc4c(=O)cc(N5CCOCC5)oc34)c3sc4ccccc4c23)CC1` [KU-0060648], in data set [1], the “inhibition of kinases of the PI3K isoenzyme family” value is “potently inhibited”.

`O=c1ccc(C(O)c2ccc(F)c(-c3ncnc4cc(N5C6CCC5COC6)ccc34)c2)n[nH]1` (stereo not shown) [Example 75, 6-({4-Fluoro-3-[7-(3-oxa-8-aza-bicyclo-[3.2.1]oct-8-yl)-quinazolin-4-yl]phenyl}-hydroxymethyl)-2H-pyridazin-3-one] registered a Ki on Kv11.1 (hERG) [2] of more than 25000 nM. On DNA-PK [3] (enzymatic, 5 μM ATP), this compound had an IC50 of more than 30 nM.

Turning to `O=c1cc(N2CCOCC2)oc2c(-c3cccc4c3sc3ccccc34)cccc12` [NU-7441], the IC50 on DNA-PK [4] is 20 nM.

For `COc1ccc(C(O)c2cc(-c3ncnc4cc(N5CCOCC5)ccc34)ccc2Cl)nn1` (stereo not shown) [Example 459, [2-Chloro-5-(7-morpholin-4-yl-quinazolin-4-yl)-phenyl]-(6-methoxy-pyridazin-3-yl)-methanol], the figures for the IC50 (in data set [5]; against DNA-PK [3] (biochemical DNA-PK assay)) were 500 to 5000 nM and 3 to 7 nM, respectively. At Kv11.1 (hERG) [6], the Ki is more than 25000 nM.

On to `OC(c1ccc(F)c(-c2ncnc3cc(N4CCOCC4)ccc23)c1)c1ncnc2ccoc12` (stereo not shown) [Example 443, [4-fluoro-3-(7-morpholin-4-yl-quinazolin-4-yl)-phenyl]furo[3,2-d}-pyrimidin-4-yl-methanol], for which the IC50 in data set [5] was 500 to 5000 nM; at DNA-PK [3] (biochemical DNA-PK assay), 3 to 7 nM. The Ki at Kv11.1 (hERG) [6] was more than 25000 nM.

With `COc1ccc(C(O)c2cc(-c3ncnc4cc(N5CCOCC5)cc(F)c34)c(F)cc2Cl)nn1` (single isomer, unassigned) [Example 263, [2-Chloro-4-fluoro-5-(5-fluoro-7-morpholin-4-yl-quinazolin-4-yl)-phenyl]-(6-methoxy-pyridazin-3-yl)-methanol], the 50% inhibitory concentration (IC50) in data set [5] is 10000 to 30000 nM; against DNA-PK [3] (biochemical DNA-PK assay), 7 to 30 nM. Further, at Kv11.1 (hERG) [6], the Ki is more than 25000 nM.
